Laboratory results taken from patent publication US20160296438A1, “PROTECTIVE ACTION OF LUTEIN AGAINST BLUE LIGHT ON HUMAN SKIN CELL LINES” (Kemin Industries, Inc., priority 2015, published 2016).
Entries after “also recorded” stand apart in the source; their conditions may differ.

How the values were obtained:
[1] = test system: human dermal fibroblasts (HDF) cells; test: Blue light shielding study with lutein, cell viability/proliferation by MTS assay; type: cell-based; settings: lutein solution in DMSO at 50, 100 and 200 ppm as shield plate on top, blue LED 476 nm, 9 hours, p<0.05, FIG. 3
Procedure: (§1) Cell culture studies. All the cell culture studies were performed using HEK cells [HEK001 (ATCC® CRL-2404™) lot #61331463] continuous cell lines and Human Skin Fibroblast (HDF) [CCD1093Sk (ATCC® CRL2115™) lot #3296816] cell lines [ATCC, Manassas, Va.].
(§2) The growth medium used for HEK cells was prepared according to ATCC guidelines. Growth media consisting of keratinocyte serum free medium (GIBCO-BRL 17005042, lot #1638561) with 5 ng/mL human recombinant epidermal growth factor (EGF) (ATCC, lot # 1584416) and 2 mM L-glutamine (ATCC, lot #62195752) (without bovine pituitary extract and serum) and supplemented with penicillin (10000 units) and streptomycin (10 mg/mL) solution (Gibco, lot #1469707). The growth medium used for HDF cells consisting of eagle's Minimum Essential Medium (EMEM) (ATCC-302003, lot #62028896) with 10% FBS and supplemented with penicillin (10000 units) and streptomycin (10 mg/mL) solution. Cells were grown in cell culture flasks (75 cm^2) [Fisher Scientific, catalog number 10-126-37] to approximately 80% confluence in 5% CO2 environment incubator (NuAire, MN) maintained at 37° C. Confluent cells were passed into subsequent cultures by trypsinization following neutralization and centrifugation. […]
(§3) MTS assay. […] After incubation the absorbance at 490 nm was recorded using microplate Reader (SpectraMax® Me5, Molecular Devices, LLC. Sunnyvale, Calif.). […]

[2] = test system: human epidermal keratinocytes (HEK) cells; test: as above; type: cell-based; settings: lutein solution in DMSO at 50, 100 and 200 ppm as shield plate on top, blue LED 476 nm, 9 hours, p<0.05, FIG. 2
Procedure: as §1, §2, §3

[3] = test system: human dermal fibroblasts (HDF) cells; test: Intracellular reactive oxygen species (ROS) assay (DCFH-DA) under blue light; type: cell-based; settings: lutein at 50, 100 and 200 ppm, blue LED 476 nm, 9 hours, FIG. 6
Procedure: (§4) Reactive Oxygen Species (ROS) assay. ROS activity was measured using Oxiselect™ intracellular ROS assay kit (Cell BioLabs, San Diego, Calif., catalogue number STA 342, lot #59342025). The cells were seeded into 96-well microplates at a density of 100,000 cells/mL (200 μL). Both the cell lines were treated with cell permeable fluorogenic probe 2′, 7′-dichlorodihydrofluorescin diacetate (DCFH-DA). Cells were washed with D-PBS for couple of times and treated with lutein at different concentrations and exposed to blue LED lights (476 nm) for 9 hours (Cells that were not treated with lutein will serve as blue light control). Cells treated with pure DMSO serves as a control for DMSO effect in presence and absence of blue light. […] After 5 minutes incubation, 150 μL of this medium was transferred to a black wall 96-well plate and fluorescence was measured. […] Intracellular reactive oxygen species (ROS) activity and the oxidative stress was measured using Oxiselect™ intracellular ROS assay kit which can measure hydroxyl, peroxyl and other free radical in the cells. […] DCFH will be rapidly oxidized to fluorescent […] (DCF-green fluorescence) in presence of reactive oxygen species. The fluorescence intensity is proportional to the ROS levels within the cell cytosol. […]

[4] = test system: human epidermal keratinocytes (HEK) cells; test: as above; type: cell-based; settings: lutein at 50, 100 and 200 ppm, blue LED 476 nm, 9 hours, FIG. 5
Procedure: as §4

[5] = Solubility of lutein in cell culture media and DMSO; type: physicochemical
Procedure: FloraGLO™ Lutein (production number M080033, lot number 1405102477, manufactured date Jun. 04, 2014) was solubilized in sterile dimethyl sulfoxide (DMSO) [ATCC, lot #61908420] with intermittent shaking for at least 6 hours to get a stock of 2 mg/mL solution. From the stock; 2.5, 5 and 10 μl of the lutein solution was added to wells containing 100 μl media to get a final lutein concentration of 50, 100 and 200 ppm in corresponding wells. Hydrogen peroxide (H2O2) [Sigma, lot #WKBS8306V] solution at 1 mM was served as a positive control in all the studies. Pure DMSO at 2.5, 5 and 10 μl was added to few wells to have the DMSO control.
FloraGLO™ Lutein was solubilized in DMSO and applied to cell cultures. […] In our earlier attempts for cell viability assays with various detection mechanisms, this high concentrations of DMSO might be interacting with cell culture membranes and causing a reduction in cell proliferation and decrease in cell viability compared to controls.

- solubility in DMSO ([5]; DMSO): limited solubility
- solubility in cell culture compatible media ([5]; cell culture compatible media): does not dissolve
Structure (SMILES): CC1=C[C@H](O)CC(C)(C)[C@H]1/C=C/C(C)=C/C=C/C(C)=C/C=C/C=C(C)/C=C/C=C(C)/C=C/C1=C(C)C[C@@H](O)CC1(C)C [lutein]
- cell proliferation (% cell viability) compared to blue light control [1]: significantly improved; also recorded: shielded the blue light effectively
- cell proliferation (% cell viability) compared to blue light control [2]: significantly improved; also recorded: shielded the blue light effectively
- fluorescence signal (DCF, generation of ROS) on blue light exposure [3]: low and prevent the generation of reactive oxygen species
- fluorescence signal (DCF, generation of ROS) on blue light exposure [4]: low and prevent the generation of reactive oxygen species
